Reference: PubChem BioAssay (NCI)
Values joined by “and” are separate entries in the source; they are usually repeats but may differ in a detail not shown here. Equal values may be shown once.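 Compound exposure: 48 hours, 5 concentrations, 96-well plates. GI50 = concentration required for 50% inhibition of growth. TGI: concentration producing complete growth inhibition.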

Assays:
Assay in all cases: growth of human tumour cells (NCI), 48 h
RXF 393 renal = test system: RXF 393 renal
TK-10 renal = test system: TK-10 renal
NCI-H226 lung = test system: NCI-H226 lung
A549 NSCLC = test system: A549 NSCLC
SR leukemia = test system: SR leukemia
PC-3 prostate = test system: PC-3 prostate
SW-620 colon = test system: SW-620 colon
MOLT-4 leukemia = test system: MOLT-4 leukemia
MALME-3M melanoma = test system: MALME-3M melanoma
SF-295 CNS = test system: SF-295 CNS

Row | Structure (SMILES) | GI50 (RXF 393 renal) | TGI (RXF 393 renal) | GI50 (TK-10 renal) | TGI (TK-10 renal) | GI50 (NCI-H226 lung) | TGI (NCI-H226 lung) | GI50 (A549 NSCLC) | TGI (A549 NSCLC) | GI50 (SR leukemia) | TGI (SR leukemia) | GI50 (PC-3 prostate) | TGI (PC-3 prostate) | GI50 (SW-620 colon) | TGI (SW-620 colon) | GI50 (MOLT-4 leukemia) | TGI (MOLT-4 leukemia) | GI50 (MALME-3M melanoma) | TGI (MALME-3M melanoma) | GI50 (SF-295 CNS) | TGI (SF-295 CNS)
1 | C[C@@H](Oc1cc(NS(=O)(=O)N2CCC2)nc(SCc2cccc(F)c2F)n1)[C@@H](O)CO | > 100 µM | > 100 µM | > 100 µM | > 100 µM | > 100 µM | > 100 µM | > 100 µM | > 100 µM | > 100 µM | > 100 µM | > 100 µM | > 100 µM | > 100 µM | > 100 µM | > 100 µM | > 100 µM | > 100 µM | > 100 µM | > 100 µM | > 100 µM
2 | N#C/C(=C/C=C/c1ccccc1)S(=O)c1ccccc1 (centres undefined) | 0.385 µM | 1.47 µM | 0.501 µM | 1.85 µM | 1.92 µM | 5.88 µM | 2.17 µM | 11.3 µM | 0.281 µM | 4.51 µM | 1.35 µM | 3.33 µM | 0.337 µM | 1.13 µM | 0.338 µM | 3.64 µM | 0.796 µM | 2.5 µM | 1.44 µM | 3.14 µM
3 | CCC1CCCCN1C(=S)N/N=C(\C)c1ccccn1 (centres undefined) | 0.488 µM | 1.91 µM | 0.191 µM | 2.56 µM | 0.561 µM | 2.13 µM | 0.0346 µM | 2.94 µM | 0.0716 µM | > 100 µM | 0.0195 µM | 2.99 µM | 0.0463 µM | 2.76 µM | 0.0982 µM | > 20.7 µM | < 0.0325 µM | 2.03 µM | 0.0296 µM | 2.81 µM
4 | CNC(=O)c1cncc(/C=C/c2c(C)cccc2C)c1 | 13.4 µM | > 25 µM | > 20.9 µM | > 25 µM | > 25 µM | > 25 µM | > 25 µM | > 25 µM | > 25 µM | > 25 µM | > 25 µM | > 25 µM | > 25 µM | > 25 µM | > 25 µM | > 25 µM | 16 µM | > 25 µM | > 25 µM | > 25 µM
5 | O=C1c2cccc3cc([N+](=O)[O-])cc(c23)C(=O)N1CCN1CCCC1 | 0.839 µM | 3.01 µM | 0.697 µM | 2.52 µM | 0.193 µM | 0.632 µM | 0.242 µM | 1.69 µM | 0.0523 µM | – | 1.58 µM | 12.5 µM | 0.389 µM | 5.19 µM | 0.237 µM | > 100 µM | 0.18 µM | 1.07 µM | 0.227 µM | 0.734 µM
6 | COc1cc2c(Nc3ccc(Br)cc3F)ncnc2cc1OCC1CCN(C)CC1 | 1.44 µM and 1.29 µM | 4.77 µM and 8.32 µM | 0.317 µM and 0.54 µM | 6.58 µM and > 10 µM | 5.23 µM and > 10 µM | 18.8 µM and > 10 µM | 3.32 µM and 4.63 µM | 15.9 µM and > 10 µM | 2.55 µM and 2.89 µM | 8.29 µM and > 10 µM | 4.06 µM and 3.9 µM | 18.6 µM and > 10 µM | 4.69 µM and > 10 µM | 15.7 µM and > 10 µM | 3.97 µM and 9.42 µM | 15.5 µM and > 10 µM | 1.83 µM and 4.47 µM | 3.85 µM and > 10 µM | 5.39 µM and > 10 µM | 15.3 µM and > 10 µM
7 | CN(C)c1ccc2cc(-c3cc4c(oc3=O)-c3ccccc3OC4O)c(=O)oc2c1 (centres undefined) | 2.69 µM | 6.53 µM | 6.63 µM | 19.8 µM | 3.28 µM | 7.08 µM | 3.22 µM | 7.15 µM | 3.19 µM | 9.96 µM | 3.85 µM | 15.1 µM | 15.6 µM | > 25 µM | 0.919 µM | 5.51 µM | 5.98 µM | 14.6 µM | 3.59 µM | 10.3 µM
8 | Cc1cccc2c1NC(=O)[C@@]21[C@H](C(=O)c2ccccc2)[C@]2(C(=O)Nc3ccccc32)[C@H]2CCCN21 | 13.5 µM | 47.5 µM | 36.8 µM | > 100 µM | 27.1 µM | > 100 µM | 58.9 µM | > 100 µM | 15.4 µM | > 100 µM | 36.4 µM | > 100 µM | 21.6 µM | > 100 µM | 52.7 µM | > 100 µM | 31.4 µM | > 100 µM | 74.6 µM | > 100 µM
9 | COc1c(B(O)O)cccc1-c1nc2c(F)cc3[nH]ncc3c2c2c1CCCC2 | 0.0459 µM | 1.67 µM | 0.0391 µM | > 38.4 µM | 1.44 µM | 22.7 µM | 1.05 µM | > 55.8 µM | 2.13 µM | > 88.5 µM | 1.73 µM | > 29 µM | 0.604 µM | 14.4 µM | 0.844 µM | > 100 µM | 3.71 µM | 9.11 µM | 2.23 µM | 12.8 µM
